Experiments:
Format in all cases: in vivo
[1] = test system: Cotton Aphid (aphis gossypii, Mixed Life Stages); assay: Cotton aphid (aphis gossypii, mixed life stages), cotyledon dip test; details: 120 h, mortality counts after 5 days, in comparison with untreated controls
Source text: (§1) The active compounds were formulated in 50:50 (vol:vol) acetone:water and 100 ppm Kinetica™ surfactant.
Cotton plants at the cotyledon stage (one plant per pot) were infested by placing a heavily infested leaf from the main colony on top of each cotyledon. The aphids were allowed to transfer to the host plant overnight, and the leaf used to transfer the aphids was removed. The cotyledons were dipped in the test solution and allowed to dry. After 5 days, mortality counts were made.

[2] = test system: Green Peach Aphid (Myzus persicae, Mixed Life Stages); assay: Green peach aphid (Myzus persicae, mixed life stages), pepper leaf dip test; details: foliar, 120 h, after 5 days, in comparison with untreated controls
Source text: as §1
Pepper plants in the 2nd leaf-pair stage (variety ‘California Wonder’) were infested with approximately 40 laboratory-reared aphids by placing infested leaf sections on top of the test plants. The leaf sections were removed after 24 hr. The leaves of the intact plants were dipped into gradient solutions of the test compound and allowed to dry. Test plants were maintained under fluorescent light (24 hour photoperiod) at about 25° C. and 20-40% relative humidity. Aphid mortality on the treated plants, relative to mortality on check plants, was determined after 5 days.

[3] = test system: Cowpea Aphid (aphis craccivora); assay: Cowpea aphid (aphis craccivora), spray on potted cowpea plants; details: population reduction assessed after 24, 72 and 120 hours, in comparison with untreated controls
Experimental: The active compounds were formulated in 50:50 (vol:vol) acetone:water. The test solution was prepared at the day of use.
Potted cowpea plants colonized with 100-150 aphids of various stages were sprayed after the pest population had been recorded. Population reduction was assessed after 24, 72, and 120 hours.

[4] = test system: Bean Aphid (Aphis fabae); assay: Bean aphid (Aphis fabae), nasturtium plant dip test; details: 72 h, after 3 days, in comparison with untreated controls
Source text: as §1
Nasturtium plants grown in Metro mix in the 1st leaf-pair stage (variety ‘Mixed Jewel’) were infested with approximately 2-30 laboratory-reared aphids by placing infested cut plants on top of the test plants. The cut plants were removed after 24 hr. Each plant was dipped into the test solution to provide complete coverage of the foliage, stem, protruding seed surface and surrounding cube surface and allowed to dry in the fume hood. The treated plants were kept at about 25° C. with continuous fluorescent light. Aphid mortality is determined after 3 days.

[5] = test system: Vetch Aphid (Megoura viciae); assay: Vetch aphid (Megoura viciae), bean leaf disk microtiterplate test; details: foliar, 144 h, concentration of the test solution 2500 mg/L, 6 days
Experimental: The active compounds were formulated in 1:3 (vol:vol) DMSO:water with different concentrations of formulated compounds.
Bean leaf disks were placed into microtiterplates filled with 0.8% agar-agar and 2.5 ppm OPUS™. The leaf disks were sprayed with 2.5 μl of the test solution and 5 to 8 adult aphids were placed into the microtiterplates which were then closed and kept at 23±1° C. and 50±5% relative humidity under fluorescent light for 6 days. Mortality was assessed on the basis of vital, reproduced aphids. Aphid mortality and fecundity was then visually assessed.

[6] = test system: Boll Weevil (Anthonomus grandis); assay: Boll weevil (Anthonomus grandis), insect diet microtiter plate test; details: 120 h, concentration of the test solution 2500 mg/L, egg and larval mortality after 5 days
Experimental: The compounds were formulated in 75:25 (vol:vol) water:DMSO.
For evaluating control of boll weevil (Anthonomus grandis) the test unit consisted of 24-well-microtiter plates containing an insect diet and 20-30 A. grandis eggs. Different concentrations of formulated compounds were sprayed onto the insect diet at 20 μl, using a custom built micro atomizer, at two replications. After application, the microtiter plates were incubated at 23±1° C. and 50±5% relative humidity for 5 days. Egg and larval mortality was then visually assessed.

[7] = test system: Southern Armyworm (spodoptera eridania, 2nd instar larvae); assay: Southern armyworm (spodoptera eridania, 2nd instar larvae), lima bean leaf dip test; details: foliar, 96 h, at 4 days, in comparison with untreated controls
Experimental: as §1
A pair of first true leaves of Sieva lima bean was dipped in the test solution and allowed to dry. The leaf was then placed in a plastic perforated zip enclosure bag and ten 2nd instar larvae were added. At 4 days, observations were made of mortality and reduced feeding.

[8] = test system: Mediterranean Fruitfly (Ceratitis capitata); assay: Activity against Mediterranean fruitfly (Ceratitis capitata), insect diet microtiter plate test; details: 120 h, eggs treated with 2500 ppm, egg and larval mortality after 5 days
Experimental: The active compounds were formulated in 1:3 (vol:vol) DMSO:water.
For evaluating control of Mediterranean fruitfly the test unit consisted of microtiter plates containing an insect diet and 50 to 80 C. capitata eggs.
Different concentrations of formulated compounds were sprayed onto the insect diet at 5 μl, using a custom built micro atomizer, at two replications. After application, microtiter plates were incubated at 28±1° C. and 80±5% relative humidity for 5 days. Egg and larval mortality was then visually assessed.

[9] = test system: Silverleaf Whitefly (bemisia argentifolii, adult); assay: Silverleaf whitefly (bemisia argentifolii, adult), cotton cotyledon dip test; details: 72 h, 3 days after treatment, in comparison with untreated controls
Experimental: as §1
Selected cotton plants were grown to the cotyledon state (one plant per pot). The cotyledons were dipped into the test solution to provide complete coverage of the foliage and placed in a well-vented area to dry. Each pot with treated seedling was placed in a plastic cup and 10 to 12 whitefly adults (approximately 3-5 day old) were introduced. The insects were collected using an aspirator and an 0.6 cm, non-toxic Tygon® tubing (R-3603) connected to a barrier pipette tip. The tip, containing the collected insects, was then gently inserted into the soil containing the treated plant, allowing insects to crawl out of the tip to reach the foliage for feeding. The cups were covered with a reusable screened lid (150 micron mesh polyester screen PeCap from Tetko Inc). Test plants were maintained in the holding room at about 25° C. and 20-40% relative humidity for 3 days avoiding direct exposure to the fluorescent light (24 hour photoperiod) to prevent trapping of heat inside the cup. Mortality was assessed 3 days after treatment of the plants.

[10] = test system: Brown Planthopper (nilaparvata lugens); assay: Brown planthopper (nilaparvata lugens), rice seedling spray test; details: after 72 hours, in comparison with untreated controls
Experimental: The active compounds were formulated as a 50:50 (vol:vol) acetone:water solution. Surfactant (Alkamuls EL 620) was added at the rate of 0.1% (vol/vol).
Rice seedlings were cleaned and washed 24 h before spraying. Potted rice seedlings were sprayed with 5 ml test solution, air dried, placed in cages and inoculated with 10 adults. Treated rice plants were kept at 28-29° C. and relative humidity of 50-60%. Percent mortality was recorded after 72 hours.

SMILES	mortality at 300 ppm [1] [%]	mortality at 300 ppm [2] [%]	mortality at 300 ppm [3] [%]	mortality at 10 ppm [4] [%]	mortality at 2500 µg/mL [5] [%]	mortality at 2500 µg/mL [6] [%]	mortality at 300 ppm [7] [%]	mortality at 2500 ppm [8] [%]	mortality at 300 ppm [9] [%]	mortality at 300 ppm [10] [%]
CCc1c(C(=O)Nc2cccnc2)cnn1-c1ccc(Cl)cc1 [Compound 143]	≥ 75	≥ 50	≥ 75	≥ 90	≥ 80	100				
CCCc1c(C(=O)Nc2cccnc2)cnn1-c1ccc(Cl)cc1 [Compound 79]		≥ 50	≥ 75				≥ 50	50		
CCc1c(C(=O)Nc2cccnc2)cnn1CC [Compound 184]	≥ 75	≥ 50	≥ 75		≥ 80			50		
CN(C(=O)c1cn(C)nc1C(F)(F)F)c1cccnc1 [Compound 29, 1-Methyl-3-trifluoromethyl-1H-pyrazole-4-carboxylic acid methyl-pyridin-3-yl-amide]	≥ 75	≥ 50	≥ 75	≥ 90	≥ 80				≥ 50	
Cn1cc(C(=O)Nc2cccnc2)c(C(F)(F)F)n1 [Compound 100]					≥ 80			50	≥ 50	
CCN(C(=O)c1cn(C)nc1C(F)(F)F)c1cccnc1 [Compound 127]	≥ 75	≥ 50		≥ 90	≥ 80					
CCn1cc(C(=O)Nc2cccnc2)c(C(F)F)n1 [Compound 181]	≥ 75	≥ 50	≥ 75		≥ 80			50		
Cc1c(C(=O)Nc2cccnc2)cnn1-c1ccc([N+](=O)[O-])cc1 [Compound 231]					≥ 80			50		
O=C(Nc1cccnc1)c1cnn(-c2ccccc2)c1Cl [Compound 123]	≥ 75	≥ 50	≥ 75	≥ 90	≥ 80					
O=C(Nc1cccnc1)c1cnn(-c2ccc(F)cc2)c1C(F)F [Compound 94]	≥ 75	≥ 50	≥ 75	≥ 90	≥ 80	100				
Cn1cc(C(=O)Nc2cccnc2)c(C(F)(F)F)n1 [Compound 13, 1-methyl-3-trifluoromethyl-1H-pyrazole-4-carboxylic acid pyridin-3-ylamide]				≥ 90		≥ 50				
Cc1c(C(=O)Nc2cccnc2)cnn1-c1nccs1 [Compound 116]	≥ 75	≥ 50	≥ 75	≥ 90	≥ 80	100				
O=C(Nc1cccnc1)c1cn[nH]c1-c1cccs1 [Compound 77]							≥ 50	50		
Cc1nn(-c2ccccc2)cc1C(=O)Nc1cccnc1 [Compound 84]								50	≥ 50	
CCn1cc(C(=O)N(C)c2cccnc2)c(C(F)(F)F)n1 [Compound 183]	≥ 75	≥ 50	≥ 75		≥ 80			50		
CN(C(=O)c1cn(C(F)F)nc1C(F)(F)F)c1cccnc1 [Compound 195]	≥ 75	≥ 50	≥ 75		≥ 80					≥ 50
Cc1c(C(=O)Nc2cccnc2)cnn1-c1ccc(Cl)cc1 [Compound 142]	≥ 75	≥ 50	≥ 75	≥ 90	≥ 80					
O=C(Nc1cccnc1)c1cn(CC(F)F)nc1C(F)(F)F [Compound 232]					≥ 80			50		
CN(C(=O)c1cn(CC(F)F)nc1C(F)(F)F)c1cccnc1 [Compound 234]					≥ 80	100		50		
CCCN(C(=O)c1cn(C)nc1C(F)(F)F)c1cccnc1 [Compound 129]				≥ 90						

Reference: patent US8642597B2, “Pyrazole compounds for controlling invertebrate pests” (BASF SE, priority 2007, dated 2014)
